What was measured:
Assay in all cases: relative viability (nuclei count vs DMSO), 5 days (fraction); higher = more cells survive
[1] = compound: CC[C@H](Nc1ncnc2[nH]cnc12)c1nc2cccc(F)c2c(=O)n1-c1ccccc1 [Idelalisib] + CS(=O)(=O)CCNCc1ccc(-c2ccc3ncnc(Nc4ccc(OCc5cccc(F)c5)c(Cl)c4)c3c2)o1 [Lapatinib] (partner 2 µM)
Outline: (§1)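 Lung cancer cell lines were seeded in 1536-well plates and dosed by pin tool the next day, with either a single drug or a fixed anchor-drug dose combined with five library-drug doses (not always all listed) spaced in √10 steps. Five days later, one step fixed the cells and stained their nuclei (final 0.05% Triton X-100, 1% formaldehyde, 1 ug/ml Hoechst), and nuclei were counted on 4× images. Relative viability is the nuclei count in treated wells divided by the count in vehicle wells, and each value is the median of duplicate plates.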

[2] = compound: CC[C@H](Nc1ncnc2[nH]cnc12)c1nc2cccc(F)c2c(=O)n1-c1ccccc1 [Idelalisib] + Nc1ncn([C@H]2C[C@H](O)[C@@H](CO)O2)c(=O)n1 [Decitabine] (partner 2 µM)
Outline: as §1

[3] = compound: CC[C@H](Nc1ncnc2[nH]cnc12)c1nc2cccc(F)c2c(=O)n1-c1ccccc1 [Idelalisib] + NC(=O)Nc1cc(-c2cccc(F)c2)sc1C(=O)N[C@H]1CCCNC1 [AZD7762] (partner 0.2 µM)
Outline: as §1

[4] = compound: Nc1nc2[nH]cc(CCc3ccc(C(=O)N[C@@H](CCC(=O)O)C(=O)O)cc3)c2c(=O)[nH]1 [Pemetrexed] + CC1(C)CCC(c2ccc(Cl)cc2)=C(CN2CCN(c3ccc(C(=O)NS(=O)(=O)c4ccc(N[C@H](CCN5CCOCC5)CSc5ccccc5)c(S(=O)(=O)C(F)(F)F)c4)cc3)CC2)C1 [Navitoclax] (partner 0.5 µM)
Outline: as §1

Row | Cell Line | relative viability ([1]; first compound 0.04 µM) | relative viability ([1]; first compound 0.1265 µM) | relative viability ([1]; first compound 0.4 µM) | relative viability ([1]; first compound 1.265 µM) | relative viability ([1]; first compound 4 µM) | relative viability ([2]; first compound 0.04 µM) | relative viability ([2]; first compound 0.1265 µM) | relative viability ([2]; first compound 0.4 µM) | relative viability ([2]; first compound 1.265 µM) | relative viability ([2]; first compound 4 µM) | relative viability ([3]; first compound 0.04 µM) | relative viability ([3]; first compound 0.1265 µM) | relative viability ([3]; first compound 0.4 µM) | relative viability ([3]; first compound 1.265 µM) | relative viability ([3]; first compound 4 µM) | relative viability ([4]; first compound 0.002 µM) | relative viability ([4]; first compound 0.006325 µM) | relative viability ([4]; first compound 0.02 µM) | relative viability ([4]; first compound 0.06325 µM) | relative viability ([4]; first compound 0.2 µM)
1 | NCI-H661 | 0.44 | 0.433 | 0.39 | 0.367 | 0.391 | 0.616 | 0.583 | 0.543 | 0.6 | 0.542 |  |  |  |  |  |  |  |  |  | 
2 | NCI-H1648 |  |  |  |  |  | 0.512 | 0.58 | 0.536 | 0.507 | 0.429 | 0.652 | 0.638 | 0.866 | 0.6 | 0.504 |  |  |  |  | 
3 | NCI-H522 |  |  |  |  |  | 0.665 | 0.67 | 0.645 | 0.631 | 0.698 | 0.857 | 0.909 | 0.849 | 0.745 | 0.851 |  |  |  |  | 
4 | EBC-1 | 0.225 | 0.198 | 0.233 | 0.239 | 0.222 |  |  |  |  |  |  |  |  |  |  | 0.396 | 0.42 | 0.474 | 0.397 | 0.507
5 | ChaGo-K-1 |  |  |  |  |  | 0.515 | 0.404 | 0.524 | 0.538 | 0.46 | 0.943 | 0.885 | 0.826 | 0.606 | 0.841 | 1.03 | 0.969 | 0.914 | 0.296 | 0.306
6 | NCI-H1299 | 0.927 | 0.977 | 0.943 | 1.09 | 1.02 |  |  |  |  |  |  |  |  |  |  | 1.05 | 0.981 | 1.1 | 1.04 | 1
7 | NCI-H441 |  |  |  |  |  | 0.313 | 0.235 |  | 0.267 | 0.187 | 1.31 | 1.08 |  | 0.715 | 1.32 |  | 0.457 | 0.605 | 0.6 | 0.48
8 | LCLC-103H |  |  |  |  |  | 0.693 | 0.707 | 0.692 | 0.795 | 0.679 | 0.757 | 0.809 | 0.724 | 0.786 | 0.652 |  |  |  |  | 
9 | COR-L23 | 1.09 | 1.14 | 0.711 | 1.29 | 0.926 | 0.489 | 0.49 | 0.46 | 0.471 | 0.401 |  |  |  |  |  | 0.991 | 0.964 | 1.04 | 0.323 | 0.194
10 | IA-LM | 0.641 | 0.733 | 0.958 | 1.24 | 0.816 |  |  |  |  |  |  |  |  |  |  | 0.773 | 0.798 | 0.856 | 0.711 | 0.483
11 | NCI-H520 | 0.776 | 0.999 | 0.717 | 0.923 | 0.684 | 0.506 | 0.386 | 0.45 | 0.502 | 0.431 |  |  |  |  |  | 0.963 | 1.08 | 1.25 | 1.11 | 1.08
12 | CAL-12T | 0.672 | 0.7 | 0.616 | 0.471 | 0.501 |  |  |  |  |  | 0.843 | 0.653 | 0.713 | 0.398 | 0.654 | 1.17 | 1.05 | 1.14 | 1.3 | 1.22
13 | A549 | 0.96 | 0.996 | 0.924 | 0.923 | 0.832 | 0.263 | 0.281 | 0.21 | 0.345 | 0.247 |  |  |  |  |  | 1.11 | 1.13 | 1.25 | 1.22 | 1.12
14 | NCI-H2009 | 0.944 | 1.04 | 0.883 | 0.572 | 0.93 | 0.4 | 0.35 | 0.322 | 0.405 | 0.381 |  |  |  |  |  | 1.15 | 1.11 | 1.18 | 1.12 | 1.04
15 | NCI-H1563 | 1.01 | 1.05 | 0.833 | 1 | 0.83 |  |  |  |  |  |  |  |  |  |  |  |  |  |  | 
16 | Calu-6 | 1.04 | 1.06 | 1.05 | 1.02 | 1.06 |  |  |  |  |  |  |  |  |  |  | 0.786 | 0.876 | 0.897 | 0.872 | 0.782
17 | NCI-H1650 | 0.888 | 0.806 | 0.762 | 0.775 | 0.561 | 0.456 | 0.465 | 0.515 | 0.359 | 0.448 |  |  |  |  |  | 1.08 | 1.11 | 1.37 | 1.15 | 0.632
18 | NCI-H358 | 0.468 | 0.469 | 0.37 | 0.488 | 0.498 | 0.237 | 0.216 | 0.191 | 0.202 | 0.21 | 0.571 | 0.462 | 0.377 | 0.295 | 0.409 |  |  |  |  | 
19 | SK-LU-1 | 0.851 | 0.866 | 0.617 | 0.998 | 0.661 | 0.645 | 0.605 | 0.581 | 0.706 | 0.618 |  |  |  |  |  | 0.881 | 0.813 | 0.791 | 0.901 | 0.817
20 | SK-MES-1 | 0.467 | 0.445 | 0.432 | 0.443 | 0.396 | 0.399 | 0.414 | 0.36 | 0.248 | 0.257 |  |  |  |  |  | 1.24 | 1.1 | 1.27 | 1.26 | 1.2
21 | NCI-H2023 | 0.837 | 1.01 | 0.525 | 0.775 | 0.724 | 0.25 | 0.236 | 0.241 | 0.197 | 0.208 |  |  |  |  |  | 0.972 | 1.02 | 0.991 | 0.942 | 0.459
22 | COR-L 105 | 0.385 | 0.353 | 0.294 | 0.374 | 0.362 | 0.567 | 0.667 | 0.513 | 0.615 | 0.642 |  |  |  |  |  | 0.674 | 0.686 | 0.878 | 0.69 | 0.707
23 | NCI-H2342 |  |  |  |  |  | 0.802 | 0.764 | 0.658 | 0.668 | 0.618 | 0.626 | 0.498 | 0.49 | 0.484 | 0.46 |  |  |  |  | 
24 | SW 1573 | 1.17 | 1.06 | 0.913 | 1.12 | 1.27 | 0.462 | 0.6 | 0.537 | 0.261 | 0.38 |  |  |  |  |  | 1.11 | 0.927 | 0.987 | 0.889 | 0.902

From the supplement of paper PMC10307832
